Earlier results as cited in patent EP1754488A1, “Methods and compositions for non-viral gene therapy for treatment of hyperproliferative diseases” (Introgen Therapeutics, Inc., priority 1999, dated 2000).
Where a name gives a salt, the structure may show the parent alone. Values belong to the molecule of their own block, whether it stands above or below them. *1 amine or outer side, *2 acyl side, *3 side chain or, on linkers, in order; H or OH if unused. Where a SMILES comes first, the peptide text is derived from it. Bridges are numbered along the chain shown (N, C = ends). Roman numbers before positions name the chains, in order. [ ]: non-standard residue; d: D form. Actinocin(9to1) = Cc1c2oc3c(C)ccc(C(=O)[*:1])c3nc-2c(C(=O)[*:2])c(N)c1=O; NMeV = CN[C@H](C(=O)O)C(C)C; Sar = CNCC(=O)O

How the values were obtained:
multiple myeloma = conditions: oral administration

Structure (SMILES): Cc1c2oc3c(C)ccc(C(=O)N[C@@H]4C(=O)N[C@H](C(C)C)C(=O)N5CCC[C@H]5C(=O)N(C)CC(=O)N(C)[C@@H](C(C)C)C(=O)O[C@@H]4C)c3nc-2c(C(=O)N[C@@H]2C(=O)N[C@H](C(C)C)C(=O)N3CCC[C@H]3C(=O)N(C)CC(=O)N(C)[C@@H](C(C)C)C(=O)O[C@@H]2C)c(N)c1=O [Actinomycin D] (I: T[dV]P[Sar][NMeV] / II: T[dV]P[Sar][NMeV]; ester I:1-I:C, II:1-II:C; linker I:N-II:N via Actinocin(9to1))
excreted / detected intact in the urine (in vivo): 10%
excreted intact into the bile (in vivo): Half of the dose

Structure (SMILES): COc1cccc2c1C(=O)c1c(O)c3c(c(O)c1C2=O)C[C@@](O)(C(C)=O)C[C@@H]3O[C@H]1C[C@H](N)[C@H](O)[C@H](C)O1 [Daunorubicin, 5,12-Naphthacenedione, (8S-cis)-8-acetyl-10-[(3-amino-2,3,6-trideoxy-a-L-lyxo-hexanopyranosyl)oxy]-7,8,9,10-tetrahydro-6,8,11-trihydroxy-10-methoxy-, hydrochloride]
half-life of distribution (in vivo): 0.75 h

Structure (SMILES): O=NN(CCCl)C(=O)NC1CCCCC1 [Lomustine, 1-(2-chloro-ethyl)-3-cyclohexyl-1 nitrosourea]
radioactivity excreted in the form of degradation products within 24 hours (oral radioactive lomustine, 30 mg/m^2 to 100 mg/m^2): about half of the radioactivity

Structure (SMILES): N[C@@H](Cc1ccc(N(CCCl)CCCl)cc1)C(=O)O [Melphalan, 4-[bis(2-chloroethyl)amino]-L-phenylalanine]
patients showing a favorable response (multiple myeloma): about one third to one half of the patients

excreted / detected intact in the urine (in vivo): Approximately 15%
half-life of disappearance from plasma after distribution (first) (intravenous injection): approximately 1 hours
half-life of disappearance from plasma after distribution (second) (intravenous injection): ~72000 s
Structure (SMILES): CC[C@]1(O)C[C@@H]2CN(CCc3c([nH]c4ccccc34)[C@@](C(=O)OC)(c3cc4c(cc3OC)N(C)[C@H]3[C@@](O)(C(=O)OC)[C@H](OC(C)=O)[C@]5(CC)C=CCN6CC[C@]43[C@@H]65)C2)C1 [Vinblastine]
